Experimental data as given in US20090018176A1, “FUNGICIDE COMPOSITION COMPRISING AN ARYLAMIDINE DERIVATIVE AND TWO KNOWN FUNGICIDE COMPOUNDS” (Bayer CropScience AG, priority 2005, published 2009).

Columns and labels:
[1] = tested on: Puccinia recondita; test: In vivo preventive test on Puccinia recondita f. sp. tritici (wheat brown rust); conditions: 50 g/ha of each active compound, evaluation 12 days after inoculation, 0% = control, 100% = no infection
Method: In Vivo Preventive Test on Puccinia Recondite f. Sp. Tritici (Wheat Brown Rust) [table] To produce a suitable preparation of active compound, 1 part by weight of active compound or active compound combination is mixed with the stated amounts of solvent and emulsifier, and the concentrate is diluted with water to the desired concentration. To test for preventive activity, young plants are […] at the stated rate of application. The plants remain for 24 hours in an incubation cabinet at 20° C. and a relative atmospheric humidity of 100%. The plants are placed in a greenhouse at a temperature of approximately 20° C. and a relative atmospheric humidity of approximately 80% to promote the development of rust pustules. Evaluation is carried out 12 days after the inoculation. 0% means an efficacy which corresponds to that of the control, whereas an efficacy of 100% means that no infection is observed. […] Compound 1 according to the invention is N-ethyl-N-methyl-N′-[4-(3-t-butyl-4-chlorphenoxy)-2,5 xylyl]-formamidine.

[2] = tested on: Pyrenophora teres; test: In vivo curative test on Pyrenophora teres (barley); conditions: 50 g/ha of each active compound, evaluation 12 days after inoculation, 0% = control, 100% = no infection
Method: In Vivo Curative Test on Pyrenophora Teres (Barley) [table] To produce a suitable preparation of active compound, 1 part by weight of active compound or active compound combination is mixed with the stated amounts of solvent and emulsifier, and the concentrate is diluted with water to the desired concentration. To test for curative activity, young plants are sprayed with a conidia suspension of Pyrenophora teres. The plants remain in an incubation cabinet at 20° C. and 100% relative atmospheric humidity for 48 hours. The plants are then sprayed with the preparation of active compound at the stated application rate. The plants are placed in a greenhouse at a temperature of about 20° C. and a relative atmospheric humidity of about 80%. Evaluation is carried out 12 days after the inoculation. 0% means an efficacy which corresponds to that of the control, whereas an efficacy of 100% means that no infection is observed.

Row | Compound | Experimental efficacy (%) [1] | Experimental efficacy (%) [2]
1 | CCN(C)C=Nc1cc(C)c(Oc2ccc(Cl)c(C(C)(C)C)c2)cc1C [compound 1, N-ethyl-N-methyl-N′-[4-(3-t-butyl-4-chlorphenoxy)-2,5 xylyl]-formamidine] | 22% | 0%
2 | OC(Cc1ccccc1Cl)(Cn1nc[nH]c1=S)C1(Cl)CC1 (stereo not drawn) [prothioconazole] |  | 0%
3 | CCCN(CC)CC1COC2(CCC(C(C)(C)C)CC2)O1 (stereo not drawn) [spriroxamine, spiroxamine] | 0% | 50%
4 | CC(C)(C)C(O)(CCc1ccc(Cl)cc1)Cn1cncn1 (stereo not drawn) [tebuconazole] | 78% | 
